Measured values from patent US20230146455A1, “TREATMENT OF INFLAMMATORY DISEASES WITH PEPTIDES AND PHARMACEUTICAL COMPOSITIONS” (Yuyu Pharma, Inc., priority 2020, published 2023).
≈ marks a conversion by molar mass, not a printed value. Entries after “also recorded” stand apart in the source; their conditions may differ. Where a SMILES comes first, the peptide text is derived from it. [ ]: non-standard residue; d: D form. The star is where a group is joined. Pyrrolidin1yl(2S-Ac) = CC(=O)[C@@H]1CCCN1*; Hyp = O=C(O)[C@@H]1C[C@@H](O)CN1; NH(CH2)2O(CH2)2NH2 = NCCOCCN*; Pyrrolidide = C1CCN(*)C1; X1 = CCN(C(C)C)*; NMeEt = CCN(C)*

Columns and labels:
[1] = system: IL-6 cytokine release in poly I:C stimulated primary human corneal epithelial cells; test: Soluble IL-6 cytokine release in poly I:C stimulated primary human corneal epithelial cells by ELISA (Example 2); type: cell-based; settings: 25 μg/mL poly I:C, 24 hours; for Poly I:C induced IL-6 cytokine release (in words): 30, 10, 1, 0.1, 0.01, 0.001 μM
Procedure: Assay protocol as shown below was used to determine the significant effect of test compounds. The data was statistically analyzed by one-way ANOVA with a Bonferroni post test comparing all the columns. The significance was represented by the p value.
Selected YDE peptides (YDE-093, -096, -100, -101, -102, -103, -104, -105, -106 and -107) were evaluated by assessing the soluble IL-6 cytokine release in poly I:C stimulated primary human corneal epithelial cells by ELISA (Biolegend, 430504).
Specifically, primary corneal epithelial cells (ATCC, ATCC PCS-700-010) were seeded on a 6-well culture plate containing the Corneal Epithelial Cell Basal Medium (ATCC, ATCC PCS-700-030) in the Corneal Epithelial Cell Growth Kit (ATCC, ATCC PCS-700-040) in an amount of 1.2×10^5 cells per well, which was then cultured for 24 hours under the conditions of 37° C. and 5% CO2. Then, cells were washed with 1×PBS and replaced with serum free medium which was then cultured for 2 hours under the conditions of 37° C. and 5% CO2.
After 2 hours, cells were treated with compounds at 6 differential concentrations (Hinokitiol/YDE peptides at 30, 10, 1, 0.1, 0.01, and 0.001 μM) with the DMSO final 0.5% and then cultured for 1 hour under the conditions of 37° C. and 5% CO2.
After 1 hour, cells were further treated with 25 μg/mL of poly I:C and cultured for 24 hours under the conditions of 37° C. and 5% CO2.
Following incubation, the supernatant was collected for IL-6 levels was assessed by Sandwich ELISA (Enzyme-linked immunosorbent assay) following manufacturer's instructions. The data was statistically analyzed by one-way ANOVA with a Bonferroni post-test comparing all the columns. The significance was represented by the p value.

[2] = Solubility (in water; in saline); type: physicochemical; settings: for solubility: water
[3] = system: IL-6 cytokine release in poly I:C stimulated primary human corneal epithelial cells; test: Soluble IL-6 cytokine release in poly I:C stimulated primary human corneal epithelial cells by ELISA (Example 6); type: cell-based
Source text: To determine the effect of compound by assessing the soluble IL-6 cytokine release in poly I:C stimulated primary human corneal epithelial cells by ELISA. • Test System: Primary Human Corneal Epithelial cells • Assay Format: 96-well plate format • Method of Detection: Enzyme-linked immunosorbent assay • Assay Controls: Hinokitiol Assay protocol as shown below was used to determine the significant effect of test compounds. The data was statistically analyzed by one-way ANOVA with a Bonferroni post test comparing all the columns. The significance was represented by the p value.

Row | Structure (SMILES) | tested concentrations with significant attenuation of IL-6 cytokine release [1] | Poly I:C induced IL-6 cytokine release (in words) [1] | solubility [2] | Solubility in Water [2] | also measured
1 | CCN(C(=O)[C@@H]1CCCN1C(=O)CNC(=O)[C@H](C)NC(=O)[C@H](CC(C)C)NC(=O)CNC(=O)[C@H](CC(C)C)NC(=O)[C@H](CCC(N)=O)NC(=O)CNC(=O)[C@@H]1C[C@@H](O)CN1)C(C)C [YDE-107] (H-[Hyp]GQLGLAGP-X1) | 30 μM, 10 μM, and 1 μM | attenuation of IL-6 release | 10000 µg/mL (≈ 11.2 mM) |  | Poly I:C induced IL-6 cytokine release (in words) ([1]; listed as YDE107): attenuate Poly I:C induced IL-6 cytokine release in a dose dependent manner
2 | CC(C)C[C@H](NC(=O)CNC(=O)[C@H](CC(C)C)NC(=O)[C@H](CCC(N)=O)NC(=O)CNC(=O)[C@@H]1C[C@@H](O)CN1)C(=O)N[C@@H](C)C(=O)NCC(=O)N1CCC[C@H]1C(=O)N[C@@H](CCCCN)C(=O)NCCOCCN [YDE-093] (H-[Hyp]GQLGLAGPK-{NH(CH2)2O(CH2)2NH2}) |  | attenuation of IL-6 release; also recorded: attenuate Poly I:C induced of IL-6 cytokine release in a dose dependent manner |  | 10000 µg/mL (≈ 9.62 mM) | Poly I:C induced IL-6 cytokine release (in words) [3]: attenuate Poly I:C induced of IL-6 cytokine release in a dose dependent manner; tested concentrations with significant attenuation of IL-6 cytokine release [3]: 30 μM, 10 μM, 1 μM and 0.1 μM
3 | CC(C)C[C@H](NC(=O)CNC(=O)[C@H](CC(C)C)NC(=O)[C@H](CCC(N)=O)NC(=O)CNC(=O)[C@@H]1C[C@@H](O)CN1)C(=O)N[C@@H](C)C(=O)NCC(=O)N1CCC[C@H]1C(=O)N[C@@H](CCCCN)C(=O)NCCOCCN [YDE-096] (H-[Hyp]GQLGLAGPK-{NH(CH2)2O(CH2)2NH2}) |  | attenuation of IL-6 release; also recorded: attenuate Poly I:C induced of IL-6 cytokine release in a dose dependent manner | 10000 µg/mL (≈ 9.62 mM) |  | Poly I:C induced IL-6 cytokine release (in words) [3]: attenuate Poly I:C induced of IL-6 cytokine release in a dose dependent manner; tested concentrations with significant attenuation of IL-6 cytokine release [3]: 30 μM, 10 μM, 1 μM and 0.1 μM
4 | CCN(C)C(=O)[C@@H]1CCCN1C(=O)CNC(=O)[C@H](C)NC(=O)[C@H](CC(C)C)NC(=O)CNC(=O)[C@H](CC(C)C)NC(=O)[C@H](CCC(N)=O)NC(=O)CNC(=O)[C@@H]1C[C@@H](O)CN1 [YDE-105] (H-[Hyp]GQLGLAGP-NMeEt) |  |  | 10000 µg/mL (≈ 11.5 mM) |  | tested concentrations with significant attenuation of IL-6 cytokine release ([1]; listed as YDE105): 30 μM, 10 μM, and 1 μM; Poly I:C induced IL-6 cytokine release (in words) ([1]; listed as YDE105): attenuate Poly I:C induced IL-6 cytokine release in a dose dependent manner
5 | CC(C)C[C@H](NC(=O)CNC(=O)[C@H](CC(C)C)NC(=O)[C@H](CCC(N)=O)NC(=O)CNC(=O)[C@@H]1C[C@@H](O)CN1)C(=O)N[C@@H](C)C(=O)NCC(=O)N1CCC[C@H]1C(=O)N1CCCC1 [YDE-106] (H-[Hyp]GQLGLAGP-Pyrrolidide) | 30 μM, 10 μM, and 1 μM | attenuation of IL-6 release |  | 10000 µg/mL (≈ 11.4 mM) | Poly I:C induced IL-6 cytokine release (in words) ([1]; listed as YDE106): attenuate Poly I:C induced IL-6 cytokine release in a dose dependent manner
6 | CC(C)C[C@H](NC(=O)CNC(=O)[C@H](CC(C)C)NC(=O)[C@H](CCC(N)=O)NC(=O)CNC(=O)[C@@H]1C[C@@H](O)CN1)C(=O)N[C@@H](C)C(=O)NCC(=O)N1CCC[C@H]1C(=O)N(C)C [YDE-101] (H-[Hyp]GQLGLAGP-NMe2) | 30 μM, 10 μM, and 1 μM | attenuation of IL-6 release |  | 10000 µg/mL (≈ 11.7 mM) | Poly I:C induced IL-6 cytokine release (in words) ([1]; listed as YDE101): attenuate Poly I:C induced IL-6 cytokine release in a dose dependent manner
7 | CCNC(=O)[C@@H]1CCCN1C(=O)CNC(=O)[C@H](C)NC(=O)[C@H](CC(C)C)NC(=O)CNC(=O)[C@H](CC(C)C)NC(=O)[C@H](CCC(N)=O)NC(=O)CNC(=O)[C@@H]1C[C@@H](O)CN1 [YDE-102] (H-[Hyp]GQLGLAGP-NHEt) | 30 μM, 10 μM, and 1 μM | attenuation of IL-6 release |  | 10000 µg/mL (≈ 11.7 mM) | Poly I:C induced IL-6 cytokine release (in words) ([1]; listed as YDE102): attenuate Poly I:C induced IL-6 cytokine release in a dose dependent manner
8 | CC(C)C[C@H](NC(=O)CNC(=O)[C@H](CC(=O)O)NC(=O)[C@H](CCC(N)=O)NC(=O)CNC(=O)[C@@H]1C[C@@H](O)CN1)C(=O)N[C@@H](C)C(=O)O [YDE-094, O*GQDGLA] (H-[Hyp]GQDGLA-OH) |  |  | 10000 µg/mL (≈ 14.9 mM) |  | 
9 | CCN(C)C(=O)[C@@H]1CCCN1C(=O)CNC(=O)[C@H](C)NC(=O)[C@H](CC(C)C)NC(=O)CNC(=O)[C@H](CC(C)C)NC(=O)[C@H](CCC(N)=O)NC(=O)CNC(=O)[C@@H]1C[C@@H](O)CN1 [YDE-103] (H-[Hyp]GQLGLAGP-NMeEt) |  | attenuation of IL-6 release |  |  | tested concentrations with significant attenuation of IL-6 cytokine release ([1]; listed as YDE103): 30 μM, 10 μM, 1 μM and 0.1 μM; Poly I:C induced IL-6 cytokine release (in words) ([1]; listed as YDE103): attenuate Poly I:C induced IL-6 cytokine release in a dose dependent manner
10 | CC(=O)[C@@H]1CCCN1C(=O)CNC(=O)[C@H](C)NC(=O)[C@H](CC(C)C)NC(=O)CNC(=O)[C@H](CC(C)C)NC(=O)[C@H](CCC(N)=O)NC(=O)CNC(=O)[C@@H]1C[C@@H](O)CN1 [YDE-100] (H-[Hyp]GQLGLAG-{Pyrrolidin1yl(2S-Ac)}) | 30 μM, and 10 μM | attenuation of IL-6 release |  | 10000 µg/mL (≈ 12.2 mM) | Poly I:C induced IL-6 cytokine release (in words) ([1]; listed as YDE100): attenuate Poly I:C induced IL-6 cytokine release in a dose dependent manner
